Data on one molecule can be found in PMC6738096 (British Journal of Cancer, 2019).

As a reminder, the IC50 is the concentration at which inhibition is half-maximal.

Where two headings read alike, the source gives them in different places.

How the values of series [1] were obtained:
During the phase 1 trial, all patients were monitored by ECGs as part of safety evaluations. […] Cardiac function (QT, Bazett-corrected QT formula, Fridericia-corrected QT formula [QTcF], PR, QRS, RR and heart rate) was evaluated by a 12-lead ECG with triplicate readouts at scheduled time points, along with changes from baseline to each scheduled time point.
All the ΔQTcF data with matching drug concentration values were used for the analysis.

Series [2] can be described thus: Plasma exposure in mice of the Karpas-299 study.
A further series concerns calcium channel. Description: Functional patch-clamp test, calcium channel inhibition. In kind it is cell-based. A general note: In patch-clamp work, channel activity is measured electrically.

On to `CC(C)NC(=O)[C@H]1CC[C@@H](n2c(NC(=O)c3ccc(F)cc3)nc3ccc(CN4CCC(C(C)(C)O)CC4)cc32)CC1` [TSR-011], for which the “Mean ΔQTcF” value in series [1] (120 mg QD (n = 1)) is recorded as 19 ms; in series [1] (40-mg TID cohort (n = 27), 90% CI 9.75–12.00 ms) it was 11 ms; in series [1] (fractionated BID (Q12h) and TID (Q8h) regimens, cumulative daily doses of 60 and 120 mg, all four regimens) it was “below 20 ms”. Further, the “Upper bound of the two-sided 90% CI of mean ΔQTcF” value in series [1] (120 mg QD (n = 1)) is 27 ms. The “Frequency of drug-related QTc prolongation” value in series [1] (40-mg TID (Q8h) RP2D) amounted to 9.7%; in series [1] (overall safety population) it was 16.7%. The “Patients with ΔQTc of > 60 ms and QTc > 500 ms (grade 3 event)” value in series [1] (40-mg TID (Q8h), one in 27 patients) is recorded as 3.7%. In addition, the ΔQTcF in series [1] (QD doses at 240 mg (n = 3), 320 mg (n = 3) and 480 mg (n = 4)) is on record as over 20 ms. In series [1] (all dose groups, 95% CI 0.01970–0.02747, P < 0.0001), the “Slope of linear regression, plasma concentration versus ΔQTcF” value is listed as 0.02358. Besides, in series [2] (oral daily dosing of 60 mg/kg), the “Overall 24-h exposure” value was 15,500 ng×h/mL. In series [2] (oral dose 60 mg/kg, at 8 h), this molecule came in with a Plasma concentration of 698.00 nM. Besides, in the series with calcium channel, the IC50 is over 10 µM.
